# Laboratory results from US20080206447A1, “ORGANIC-ELECTROLUMINESCENCE-MATERIAL-CONTAINING SOLUTION, METHOD FOR FORMING ORGANIC ELECTROLUMINESCENCE THIN FILM AND ORGANIC ELECTROLUMINESCENCE DEVICE” (Idemitsu Kosan Co., Ltd., priority 2007, published 2008).
# Assay: Solubility in 4-isopropylbiphenyl at 0.5 wt % by visual check
# Assay type: physicochemical
# Parameters: key to Solubility: A: solution that contained no insoluble element; B: solution that contained insoluble element(s)
# Settings: 4-isopropylbiphenyl, 0.5 wt %
# From the text: The results are shown in Table 2, where solution that contained no insoluble element is rated as “A” while solution that contained insoluble element(s) is rated as “B”.
row,Compound,Solubility in 4-isopropylbiphenyl (in words)
1,c1cc(-c2ccc3ccccc3c2)cc(-c2c3ccccc3c(-c3cccc4ccccc34)c3ccccc23)c1 [Compound F],low solubility
2,c1cc(-c2ccc3ccccc3c2)cc(-c2c3ccccc3c(-c3ccc4cc(-c5ccc6ccccc6c5)ccc4c3)c3ccccc23)c1 [Compound G],low solubility

# Next, values leading:
row,Solubility in 4-isopropylbiphenyl (in words),Compound
1,low solubility,c1ccc(-c2ccc(-c3c4ccccc4c(-c4ccccc4)c4ccccc34)cc2)cc1 [Compound H]
2,low solubility,c1ccc(-c2c3ccccc3c(-c3cccc(-c4cccc(-c5c6ccccc6c(-c6ccccc6)c6ccccc56)c4)c3)c3ccccc23)cc1 [Compound I]
3,low solubility,c1ccc(-c2ccc(-c3c4ccccc4c(-c4ccc(-c5ccccc5)cc4-c4ccccc4)c4cc5ccccc5cc34)c(-c3ccccc3)c2)cc1 [Compound L]
4,low solubility,c1ccc(-c2ccc(-c3c4ccccc4c(-c4ccc(-c5ccccc5)cc4)c4cc5ccccc5cc34)cc2)cc1 [Compound M]
5,"lower solubility than the compounds J, K",c1ccc(-c2c3ccccc3c(-c3ccccc3)c3c(-c4ccccc4)c4ccccc4c(-c4ccccc4)c23)cc1 [Compound N]

# Same assay, conditions: added to 4-isopropylbiphenyl at 0.5 wt %, visual check
row,Compound,Solubility
1,c1cc(-c2ccc(-c3ccc4ccccc4c3)cc2)cc(-c2c3ccccc3c(-c3ccc(-c4cccc5ccccc45)cc3)c3ccccc23)c1 [Compound B],A
2,c1ccc2cc(-c3ccc(-c4c5ccccc5c(-c5ccc(-c6cccc7ccccc67)cc5)c5ccccc45)cc3)ccc2c1 [Compound C],A
3,c1ccc2cc(-c3ccc4cc(-c5c6ccccc6c(-c6ccc(-c7cccc8ccccc78)cc6)c6ccccc56)ccc4c3)ccc2c1 [Compound D],A
4,c1ccc(-c2cc(-c3ccc4ccccc4c3)cc(-c3c4ccccc4c(-c4ccc5ccccc5c4)c4ccccc34)c2)cc1 [Compound E],A
5,c1cc(-c2ccc3ccccc3c2)cc(-c2c3ccccc3c(-c3cccc4ccccc34)c3ccccc23)c1 [Compound F],B
6,c1cc(-c2ccc3ccccc3c2)cc(-c2c3ccccc3c(-c3ccc4cc(-c5ccc6ccccc6c5)ccc4c3)c3ccccc23)c1 [Compound G],B

# Further lines, results first:
row,Solubility,Compound
1,B,c1ccc(-c2ccc(-c3c4ccccc4c(-c4ccccc4)c4ccccc34)cc2)cc1 [Compound H]
2,B,c1ccc(-c2c3ccccc3c(-c3cccc(-c4cccc(-c5c6ccccc6c(-c6ccccc6)c6ccccc56)c4)c3)c3ccccc23)cc1 [Compound I]
3,A,c1ccc(-c2ccc(-c3ccccc3)c(-c3ccc(-c4cc(-c5ccccc5)ccc4-c4ccccc4)c4cc5cc6ccccc6cc5cc34)c2)cc1 [Compound J]
4,A,c1ccc(-c2cc(-c3ccccc3)c(-c3c4ccccc4c(-c4ccccc4)c4cc5ccccc5cc34)c(-c3ccccc3)c2)cc1 [Compound K]
5,B,c1ccc(-c2ccc(-c3c4ccccc4c(-c4ccc(-c5ccccc5)cc4-c4ccccc4)c4cc5ccccc5cc34)c(-c3ccccc3)c2)cc1 [Compound L]
6,B,c1ccc(-c2ccc(-c3c4ccccc4c(-c4ccc(-c5ccccc5)cc4)c4cc5ccccc5cc34)cc2)cc1 [Compound M]
7,B,c1ccc(-c2c3ccccc3c(-c3ccccc3)c3c(-c4ccccc4)c4ccccc4c(-c4ccccc4)c23)cc1 [Compound N]

# Assay: Solvent solubility of para-substituted naphthacene compound
# Assay type: physicochemical
# Settings: solvent not stated
row,Solubility [wt %],Compound
1,≤ 0.1,c1ccc(-c2ccc(-c3c4ccccc4c(-c4ccc(-c5ccccc5)cc4-c4ccccc4)c4cc5ccccc5cc34)c(-c3ccccc3)c2)cc1 [drawing 5]

# Assay: Viscosity of the solvent
# Assay type: physicochemical
# Settings: neat solvent, 22 degrees C
# Method: 100 mg of a compound A represented by the following formula was put into a sample bottle, and a solvent was dropped thereinto while stirring until the compound A was completely dissolved. The solubility of the compound A in the solvent was calculated from an amount of the dropped solvent. The viscosity of the solvent was measured at the temperature of 22 degrees C.
row,Compound,Viscosity [cP]
1,"Cc1ccc(Cc2ccc(C)c(C)c2)cc1C [1,1-bis(3,4-dimethylphenyl)methane]",33.6
2,CCc1cccc(-c2ccccc2)c1 [3-ethylbiphenyl],5.6
3,CC(C)c1ccc(-c2ccccc2)cc1 [4-isopropylbiphenyl],6.9
4,c1ccc(C2CCCCC2)cc1 [cyclohexyl benzene],2.6
5,CCCCCCCCCCCCc1ccccc1 [dodecylbenzene],4.5
6,Cc1cc(C)cc(C)c1 [mesitylene],0.76
7,CCC(C)c1ccccc1 (centres unmarked) [s-butylbenzene],1.0
8,CC(C)(C)c1ccccc1 [t-butylbenzene],1.2
9,c1ccc2c(c1)CCCC2 [tetralin],2.3
10,Cc1ccccc1 [toluene],0.65
11,xylene,0.76
